For this assay, the target named is Mitogen-activated protein kinase 14 (Homo sapiens, UniProt Q16539). In words: Inhibition of Mitogen-activated protein kinase p38 alpha.
Mitogen-activated protein kinase 14, sequence (Q16539 whole entry): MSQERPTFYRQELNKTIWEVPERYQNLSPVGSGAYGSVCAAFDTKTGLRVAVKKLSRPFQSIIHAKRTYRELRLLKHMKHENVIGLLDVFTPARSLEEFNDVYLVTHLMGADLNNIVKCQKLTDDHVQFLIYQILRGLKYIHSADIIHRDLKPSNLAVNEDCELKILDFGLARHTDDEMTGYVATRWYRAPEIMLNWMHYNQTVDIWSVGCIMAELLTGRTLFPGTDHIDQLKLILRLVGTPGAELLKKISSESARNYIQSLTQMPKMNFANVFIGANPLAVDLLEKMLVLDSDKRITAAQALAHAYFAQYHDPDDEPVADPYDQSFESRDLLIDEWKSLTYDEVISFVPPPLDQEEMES
In the case of `O=C(c1cccc2cc[nH]c12)N1CCN(Cc2ccccc2)CC1`, the IC50 (as a rule, the point on the concentration scale where inhibition reaches its midpoint) is more than 30000 nM.
As for `COc1cc2[nH]ccc2cc1C(=O)N1C[C@H](C)N(Cc2ccccc2)C[C@H]1C`, the IC50 was determined as 20 nM.
`C[C@@H]1CN(Cc2ccccc2)[C@@H](C)CN1C(=O)c1ccc2[nH]ccc2c1`: it took 1300 nM to reach half-maximal inhibition (IC50).
Under `COc1cc2[nH]ccc2cc1C(=O)N1C[C@@H](C)N(Cc2ccccc2)C[C@@H]1C` stands 1650 nM; under `COc1cc2[nH]ccc2cc1C(=O)N1CCN(Cc2ccccc2)CC1`, 950 nM; under `COc1cc2[nH]ccc2cc1C(=O)N1C[C@H](C)N(Cc2ccccc2)C[C@H]1C` (racemic), 70 nM.

The record behind these values is ChEMBL document CHEMBL1136214, “Indole-based heterocyclic inhibitors of p38alpha MAP kinase: designing a conformationally restricted analogue” (Bioorg Med Chem Lett, 2003).
